Reference: patent US20040101484A1, “Nasal delivery of apomorphine in combination with glycol derivatives” (priority 1998, published 2004)

Assays:
healthy male subjects = test: Adverse nasal effects after nasal administration of apomorphine HCl formulations to male subjects (Examples 1-6); type: in vivo, human
Protocol: A series of experiments were performed to illustrate features and advantages of the present invention. Several conditions were common to each experiment. […] Further, none of the subjects took any medication for two weeks prior to these experiments.
A different dosage of apomorphine was administered in each experiment to determine a preferred range of dosages having minimal adverse effects.

[1] = tested on: patients suffering from psychogenic erectile dysfunction; test: In-clinic efficacy and safety study of nasal apomorphine HCl, double blind double dummy placebo controlled cross over, self graded questionnaire; type: in vivo, human; settings: nasal administration, containing propylene glycol
[2] = tested on: patients suffering from erectile dysfunction; settings: intranasal delivery, 2.5 mg to 3.5 mg; cited from earlier work
[3] = 0.5 mg, without glycol derivatives, three subjects
[4] = 2.0 mg, without glycol derivatives, nine subjects

SMILES: CN1CCc2cccc3c2[C@H]1Cc1ccc(O)c(O)c1-3 [apomorphine]
- Adverse nasal effects (overall conclusion) (healthy male subjects; 0.5 mg, does not contain glycol derivatives): some adverse nasal effects
- Number of subjects who did not suffer any symptoms (healthy male subjects; [3]): One
- Number of subjects who suffered from mild nasal burning or pain (healthy male subjects; [3]): two
- Adverse nasal effects (overall conclusion) (healthy male subjects; 1.0 mg dose, does not contain glycol derivatives): some adverse nasal effects
- Adverse nasal effects (overall conclusion) (healthy male subjects; 1.0 mg, composition with propylene glycol (Table 5), six subjects): none of the subjects suffered from adverse nasal effects
- Adverse nasal effects (overall conclusion) (healthy male subjects; 2.0 mg, composition with propylene glycol (Table 6), six subjects): none of the subjects suffered from adverse nasal effects
- Adverse nasal effects (overall conclusion) (healthy male subjects; 2.0 mg, without glycol derivatives): some adverse nasal effects
- Number of subjects who suffered from mild nasal burning (healthy male subjects; [4]): One
- Number of subjects who suffered from mild to moderate nasal burning (healthy male subjects; [4]): one
- Number of subjects who suffered from mild unusual taste (healthy male subjects; [4]): four
- Adverse nasal effects (overall conclusion) (healthy male subjects; 4.0 mg, does not contain glycol derivatives): some adverse nasal effects
- Number of subjects who experienced moderate sneezing, somewhat troublesome (healthy male subjects; 4.0 mg, does not contain glycol derivatives, two subjects): One
- Induction of an erection (overall conclusion) [1]: effective in inducing an erection
- Induction of an erection compared with nasal placebo or Viagra ([1]; listed as apomorphine HCI): more effective than a nasal placebo or Viagra in inducing an erection
- Induction of an erection compared with nasal placebo or Viagra ([1]; listed as apomorphine HCl): more effective than nasal placebo or Viagra in inducing an erection
- Eliciting an erection [2]: effective for eliciting an erection
- Side effects suffered by study participants [2]: extensive and serious side effects including hypotension, nausea, vomiting, impaired vision, diaphoresis and ashen coloring
